In US10940110B2, “Method and system for the treatment of chronic COPD with nebulized anticholinergic administrations” (Sunovion Respiratory Development Inc., priority 2008, dated 2021):

System: patients with COPD
Conditions: 200 μg
[1] = high efficiency nebulizer, 24 hour time point

Method: GIS 200 μg/0.5 mL oral inhalation via eFlow.
GIS 75 μg/0.5 mL oral inhalation via eFlow; 2. GIS 500 μg/0.5 mL oral; 3. GIS 1000 n/0.5 mL oral inhalation via eFlow.
The primary efficacy variable was serial spirometry throughout the 36 hour period after dosing. The spirometry assessments include forced expiratory volume in one second (FEV1), forced vital capacity (FVC), peak expiratory flow rate (PEFR), FEV1% of predicted normal.

C[N+]1(C)CCC(OC(=O)C(O)(c2ccccc2)C2CCCC2)C1 (centres unmarked) [glycopyrrolate, 3-[(cyclopentylhydroxyphenylacetyl)oxy]-1,1-dimethylpyrrolidinium]
increase in FEV1 above baseline (% change from baseline) (conventional jet nebulizer, 12 hr time point and beyond): ≤ 10% | increase in FEV1 above baseline (conventional jet nebulizer, any time point after 12 hr): ≤ 100 mL | mean improvement in peak lung function (peak FEV1) compared to the same dose in the conventional jet nebulizer (high efficiency nebulizer vs conventional jet nebulizer): about 45 mL | improvement in FEV1 above baseline (% change from baseline) [1]: greater than 10% | improvement in lung function, FEV1 above baseline [1]: greater than 100 mL
